≈ marks a conversion by molar mass, not a printed value.
Columns and labels:
Assay type in all cases: functional
Aphis gossypii [1] = test: Insecticidal activity against imidacloprid-resistant Aphis gossypii (cotton aphid) in cotton leaves assessed as longevity at LC20 concentration
Aphis gossypii [2] = system: Aphis gossypii
Description: Insecticidal activity against imidacloprid-resistant Aphis gossypii (cotton aphid) in cotton leaves assessed as inhibition of honeydew excretion at LC20 concentration measured after 72 hr by dipping method

Aphis gossypii [3] = test: Insecticidal activity against imidacloprid-resistant Aphis gossypii (cotton aphid) in cotton leaves assessed as mortality measured after 72 hr by dipping method
Aphis gossypii [4] = test: Resistance ratio, LC50 for Aphis gossypii RF45 (cotton aphid) to LC50 for Aphis gossypii SS
Aphis gossypii [5] = test: Insecticidal activity against imidacloprid-resistant Aphis gossypii RF45 (cotton aphid) in cotton leaves assessed as mortality measured after 48 hr by dipping method
Aphis gossypii [6] = test: Insecticidal activity against Aphis gossypii SS (cotton aphid) in cotton leaves assessed as mortality measured after 48 hr by dipping method
Aphis gossypii [7] = test: Insecticidal activity against cotton aphid Aphis gossypii F33 (cotton aphid) in cotton leaves assessed as mortality measured after 48 hr by dipping method
Aphis gossypii [8] = test: Insecticidal activity against cotton aphid Aphis gossypii F27 (cotton aphid) in cotton leaves assessed as mortality measured after 48 hr by dipping method
Aphis gossypii [9] = test: Insecticidal activity against cotton aphid Aphis gossypii F24 (cotton aphid) in cotton leaves assessed as mortality measured after 48 hr by dipping method
Aphis gossypii [10] = test: Insecticidal activity against cotton aphid Aphis gossypii F21 (cotton aphid) in cotton leaves assessed as mortality measured after 48 hr by dipping method
Aphis gossypii [11] = test: Insecticidal activity against cotton aphid Aphis gossypii F15 (cotton aphid) in cotton leaves assessed as mortality measured after 48 hr by dipping method
Aphis gossypii [12] = test: Insecticidal activity against cotton aphid Aphis gossypii F18 (cotton aphid) in cotton leaves assessed as mortality measured after 48 hr by dipping method
Aphis gossypii [13] = test: Insecticidal activity against cotton aphid Aphis gossypii F12 (cotton aphid) in cotton leaves assessed as mortality measured after 48 hr by dipping method
Aphis gossypii [14] = test: Insecticidal activity against cotton aphid Aphis gossypii F6 (cotton aphid) in cotton leaves assessed as mortality measured after 48 hr by dipping method
Aphis gossypii [15] = test: Insecticidal activity against cotton aphid Aphis gossypii F0 (cotton aphid) in cotton leaves assessed as mortality measured after 48 hr by dipping method
Aphis gossypii [16] = test: Resistance ratio, LC50 for Aphis gossypii F42 (cotton aphid) to LC50 for Aphis gossypii F0
Aphis gossypii [17] = test: Resistance ratio, LC50 for Aphis gossypii F45 (cotton aphid) to LC50 for Aphis gossypii F0
Aphis gossypii [18] = test: Resistance ratio, LC50 for Aphis gossypii F39 (cotton aphid) to LC50 for Aphis gossypii F0
Aphis gossypii [19] = test: Resistance ratio, LC50 for Aphis gossypii F36 (cotton aphid) to LC50 for Aphis gossypii F0
Aphis gossypii [20] = test: Resistance ratio, LC50 for Aphis gossypii F30 (cotton aphid) to LC50 for Aphis gossypii F0
Aphis gossypii [21] = test: Resistance ratio, LC50 for Aphis gossypii F33 (cotton aphid) to LC50 for Aphis gossypii F0
Aphis gossypii [22] = test: Resistance ratio, LC50 for Aphis gossypii F27 (cotton aphid) to LC50 for Aphis gossypii F0
Aphis gossypii [23] = test: Resistance ratio, LC50 for Aphis gossypii F21 (cotton aphid) to LC50 for Aphis gossypii F0
Aphis gossypii [24] = test: Resistance ratio, LC50 for Aphis gossypii F24 (cotton aphid) to LC50 for Aphis gossypii F0
Aphis gossypii [25] = test: Resistance ratio, LC50 for Aphis gossypii F18 (cotton aphid) to LC50 for Aphis gossypii F0
Aphis gossypii [26] = test: Resistance ratio, LC50 for Aphis gossypii F15 (cotton aphid) to LC50 for Aphis gossypii F0
Aphis gossypii [27] = test: Resistance ratio, LC50 for Aphis gossypii F12 (cotton aphid) to LC50 for Aphis gossypii F0
Aphis gossypii [28] = test: Resistance ratio, LC50 for Aphis gossypii F9 (cotton aphid) to LC50 for Aphis gossypii F0
Aphis gossypii [29] = test: Resistance ratio, LC50 for Aphis gossypii F6 (cotton aphid) to LC50 for Aphis gossypii F0
Aphis gossypii [30] = test: Resistance ratio, LC50 for Aphis gossypii F3 (cotton aphid) to LC50 for Aphis gossypii F0
Aphis gossypii [31] = test: Insecticidal activity against cotton aphid Aphis gossypii F9 (cotton aphid) in cotton leaves assessed as mortality measured after 48 hr by dipping method
Aphis gossypii [32] = test: Insecticidal activity against cotton aphid Aphis gossypii F3 (cotton aphid) in cotton leaves assessed as mortality measured after 48 hr by dipping method
Aphis gossypii [33] = test: Insecticidal activity against cotton aphid Aphis gossypii F45 (cotton aphid) in cotton leaves assessed as mortality measured after 48 hr by dipping method
Aphis gossypii [34] = test: Insecticidal activity against cotton aphid Aphis gossypii F42 (cotton aphid) in cotton leaves assessed as mortality measured after 48 hr by dipping method
Aphis gossypii [35] = test: Insecticidal activity against cotton aphid Aphis gossypii F36 (cotton aphid) in cotton leaves assessed as mortality measured after 48 hr by dipping method
Aphis gossypii [36] = test: Insecticidal activity against cotton aphid Aphis gossypii F39 (cotton aphid) in cotton leaves assessed as mortality measured after 48 hr by dipping method
Aphis gossypii [37] = test: Insecticidal activity against cotton aphid Aphis gossypii F30 (cotton aphid) in cotton leaves assessed as mortality measured after 48 hr by dipping method

C/C(=N\C#N)N(C)Cc1ccc(Cl)nc1 [ACETAMIPRID]
Survival (Aphis gossypii [1]): 11.4 days
inhibition (INH) (Aphis gossypii [2]): 40.2%
LC20 (Aphis gossypii [3]): 8.36 µg/mL (≈ 37.5 µM)
RatioLC50 (Aphis gossypii [4]): 4.52
LC50 (Aphis gossypii [5]): 12.4 microg/mL2
LC50 (Aphis gossypii [6]): 2.73 microg/mL2

N#C/N=C1\SCCN1Cc1ccc(Cl)nc1 [THIACLOPRID]
Survival (Aphis gossypii [1]): 10.6 days
inhibition (INH) (Aphis gossypii [2]): 36.9%
LC20 (Aphis gossypii [3]): 5.45 µg/mL (≈ 21.6 µM)
RatioLC50 (Aphis gossypii [4]): 3.68
LC50 (Aphis gossypii [5]): 8.69 microg/mL2
LC50 (Aphis gossypii [6]): 2.36 microg/mL2

CCN(Cc1ccc(Cl)nc1)/C(=C/[N+](=O)[O-])NC [NITENPYRAM]
Survival (Aphis gossypii [1]): 8.42 days
inhibition (INH) (Aphis gossypii [2]): 28.3%
LC20 (Aphis gossypii [3]): 10.5 µg/mL (≈ 38.8 µM)
RatioLC50 (Aphis gossypii [4]): 5.78
LC50 (Aphis gossypii [5]): 14.3 microg/mL2
LC50 (Aphis gossypii [6]): 2.47 microg/mL2

CN/C(=N\[N+](=O)[O-])NCc1cnc(Cl)s1 [CLOTHIANIDINE]
Survival (Aphis gossypii [1]): 6.61 days
inhibition (INH) (Aphis gossypii [2]): 72.7%
LC20 (Aphis gossypii [3]): 1.23 µg/mL (≈ 4.93 µM)
RatioLC50 (Aphis gossypii [4]): 1.2
LC50 (Aphis gossypii [5]): 2.18 microg/mL2
LC50 (Aphis gossypii [6]): 1.82 microg/mL2

CN/C(=N/CC1CCOC1)N[N+](=O)[O-] (stereo not drawn) [DINOTEFURAN]
Survival (Aphis gossypii [1]): 2.95 days
inhibition (INH) (Aphis gossypii [2]): 82.2%
LC20 (Aphis gossypii [3]): 0.88 µg/mL (≈ 4.35 µM)
RatioLC50 (Aphis gossypii [4]): 1.07
LC50 (Aphis gossypii [5]): 1.29 microg/mL2
LC50 (Aphis gossypii [6]): 1.2 microg/mL2

O=[N+]([O-])/N=C1\NCCN1Cc1ccc(Cl)nc1 [IMIDACLOPRID]
Survival (Aphis gossypii [1]): 13.6 days
inhibition (INH) (Aphis gossypii [2]): 23.4%
LC50 (Aphis gossypii [7]): 10.7 microg/mL2
LC50 (Aphis gossypii [8]): 7.1 microg/mL2
LC50 (Aphis gossypii [9]): 6.35 microg/mL2
LC50 (Aphis gossypii [10]): 5.17 microg/mL2
LC50 (Aphis gossypii [11]): 3.34 microg/mL2
LC50 (Aphis gossypii [12]): 4.2 microg/mL2
LC50 (Aphis gossypii [13]): 2.41 microg/mL2
LC50 (Aphis gossypii [14]): 1.23 microg/mL2
LC50 (Aphis gossypii [15]): 0.32 microg/mL2
LC20 (Aphis gossypii [3]): 10.6 µg/mL (≈ 41.5 µM)
RatioLC50 (Aphis gossypii [4]): 41.7
LC50 (Aphis gossypii [5]): 13.5 microg/mL2
LC50 (Aphis gossypii [6]): 0.32 microg/mL2
RatioLC50 (Aphis gossypii [16]): 41.1
RatioLC50 (Aphis gossypii [17]): 41.7
RatioLC50 (Aphis gossypii [18]): 39.3
RatioLC50 (Aphis gossypii [19]): 38.2
RatioLC50 (Aphis gossypii [20]): 28.5
RatioLC50 (Aphis gossypii [21]): 33.4
RatioLC50 (Aphis gossypii [22]): 22.2
RatioLC50 (Aphis gossypii [23]): 16.2
RatioLC50 (Aphis gossypii [24]): 19.8
RatioLC50 (Aphis gossypii [25]): 13.1
RatioLC50 (Aphis gossypii [26]): 10.4
RatioLC50 (Aphis gossypii [27]): 7.53
RatioLC50 (Aphis gossypii [28]): 4.81
RatioLC50 (Aphis gossypii [29]): 3.84
RatioLC50 (Aphis gossypii [30]): 1.72
LC50 (Aphis gossypii [31]): 1.54 microg/mL2
LC50 (Aphis gossypii [32]): 0.55 microg/mL2
LC50 (Aphis gossypii [33]): 13.5 microg/mL2
LC50 (Aphis gossypii [34]): 13.2 microg/mL2
LC50 (Aphis gossypii [35]): 12.2 microg/mL2
LC50 (Aphis gossypii [36]): 12.6 microg/mL2
LC50 (Aphis gossypii [37]): 9.12 microg/mL2

CN1COCN(Cc2cnc(Cl)s2)/C1=N\[N+](=O)[O-] [THIAMETHOXAM]
Survival (Aphis gossypii [1]): 6.78 days
inhibition (INH) (Aphis gossypii [2]): 73.7%
LC20 (Aphis gossypii [3]): 0.96 µg/mL (≈ 3.29 µM)
RatioLC50 (Aphis gossypii [4]): 1.06
LC50 (Aphis gossypii [5]): 1.69 microg/mL2
LC50 (Aphis gossypii [6]): 1.6 microg/mL2

From ChEMBL document CHEMBL3045951, “Toxicities and sublethal effects of seven neonicotinoid insecticides on survival, growth and reproduction of imidacloprid-resistant cotton aphid, Aphis gossypii” (2011)
